We go through 3 compounds from patent US8709745B2, “Methods for isolating ligands of the human bitter taste receptor TAS2R49” (Deutsches Institut für Ernährungsforschung Potsdam-Rehbrücke, priority 2009, dated 2014).

The structures appear in SMILES notation. “Also recorded” adds a separate entry of the source. Where a name gives a salt, the structure may show the parent alone.

For data set [1] the following is noted: vendor property list; cited from earlier work.
Data set [2] deals with T1, TAS2R49 human bitter taste receptor (Homo sapiens, UniProt P59543, K79E).
T1 construct: first 45 amino acids of rat somatostatin receptor type 3 (SST), membrane-targeting signal (N); expressed in transfected cells; host or cells: HEK-293T cells stably expressing the chimeric G-protein alpha subunit Gα16gust44; vector pcDNA5/FRT
T1 sequence (P59543 1-309 K79E): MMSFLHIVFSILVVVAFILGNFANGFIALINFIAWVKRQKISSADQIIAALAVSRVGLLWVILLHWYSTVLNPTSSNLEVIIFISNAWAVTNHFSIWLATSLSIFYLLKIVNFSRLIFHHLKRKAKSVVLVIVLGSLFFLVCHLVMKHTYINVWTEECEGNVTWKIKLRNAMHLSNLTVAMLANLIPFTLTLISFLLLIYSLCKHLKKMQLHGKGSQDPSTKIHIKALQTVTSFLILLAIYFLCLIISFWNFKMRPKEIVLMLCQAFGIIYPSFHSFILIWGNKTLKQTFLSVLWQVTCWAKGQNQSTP
The data set can be described thus: FLIPR calcium assay in HEK-293T Gα16gust44 cells transiently transfected with SST-hTAS2R49-HSV. Format: cell-based. Particulars: for activation of hTAS2R49 (calcium response): hTAS2R49 transfected vs mock transfected cells. The source says: The TAS2R49 human bitter taste receptor was functional expressed in a heterologouse cell system. Therefore, the coding region for this hTAS2R was cloned into a vector (pcDNA5/FRT, Invitrogen, San Diego, Calif.). The construct includes the sequence for the first 45 amino acids of a rat somatostatin receptor type 3 (SST) coupled to the N-terminal end of the receptor for an improvement of receptor membrane targeting. At the C-terminus of the bitter taste receptor a herpes simplex virus glycoprotein D (HSV) epitope was added for immunocytochemical detection. The SST-hTAS2R49-HSV pcDNA5/FRT plasmid construct was transiently transfected into HEK-293T cells stably expressing the chimeric G-protein a subunit Gal6gust44. An empty pcDNA5/FRT plasmid /vector were used as negative control. The cells were seeded into 96-well plates (Greiner Bio-One, Frickenhausen, Germany) under conventional cell culture conditions (Dulbecco's Modified Eagle Medium (DMEM)/10% FCS/1% penicillin/streptomycin; 37° C., 5% CO2, 95% humidity) and 24-26 h later transfected with 150 ng plasmid DNA and 300 ng Lipofectamine 2000 (Invitrogen, San Diego, Calif.). 24-26 h later the cells were loaded with the calcium sensitive dye Fluo4-acetoxymethyl (Molecular Probes, Karlsruhe, Germany) with a final concentration of 20 μM in serum-free DMEM medium. The organic anion-transport inhibitor probenecid (Sigma Aldrich, München, Germany) was added to the dye/medium solution to reduce leakage of the indicator after cleavage of the ester bonds. 1 h after loading, the well plates were washed 3 times with 30 min incubation between the last second wash steps (protected from light) by Denley cell washer (Thermo Fisher Scientific Inc., Waltham, Mass.). The washing solution contains 130 mM NaCl, 5 mM KCl, 10 mM HEPES with pH 7.4, 2 mM CaCl2, and 10 mM Glucose. The agonist was solved and diluted in wash solution.
The elevation of the cytosolic calcium concentration was measured after application of the test substances using the Fluorometric Imaging Plate Reader (FLIPR, Molecular Devices, Munich, Germany) at […]. The vitality of the cells was verified by a second application of 100 nM somatostatin-14, an agonist of the endogenous […] somatostatin receptor type 2. To exclude unspecific responses and false positive signals, mock transfected cells were always measured on the same plate with the same compound concentration each. All experiments were performed at least twice. For the calculation of the dose-response function, the signals of the wells with the same concentration of the agonist were automatically normalized with the control wells (mock transfection, Fmock) by FLIPR384® software (Molecular Devices, Munich, Germany). To consider the dye loading efficiency and the cell number the background fluorescence was measured for each plate/each well and denoted as signal test. […] The calculation of the EC50 values were prepared in SigmaPlot 9.0 by nonlinear regression to the function f(x)=100/[1+(EC50/x)nH], where x is the agonist concentration and nH is the Hill coefficient.

The mark [3] stands for this setting: averaged dose response curve (n=5), FIG. 1.

For orientation: EC50 means the concentration that produces a half-maximal response.

Take `O=C(O)c1cc(=O)c2c(OCC(O)COc3cccc4oc(C(=O)O)cc(=O)c34)cccc2o1` [Cromolyn sodium, disodium salt of 5,5′-[(2-hydroxytrimethylene)dioxy]bis[4-oxo-4H-1-benzopyran-2-carboxylate]]: the water solubility entry in data set [1] is recorded as “water-soluble”.
`O=C(O)c1cc(=O)c2c(OCC(O)COc3cccc4oc(C(=O)O)cc(=O)c34)cccc2o1` [cromolyn]: in data set [2] (setting [3]), the EC50 is 42 ± 13 µM and the threshold is around 0.01 mM. The “activation of hTAS2R49 (calcium response)” value in data set [2] is recorded as “responded robustly; also recorded: effective agonist of hTAS2R49”.
For the compound `OC(CCCN1CCCCC1)(c1ccccc1)c1ccccc1` [diphenidol], the “activation of hTAS2R49 (calcium response)” value is “activated the receptor” in data set [2] and “agonist for hTAS2R49” in data set [2] (listed as Diphenidol).
